For 29 compounds, EC50 results are on record in patent US12247018B2, “Aryl-n-aryl derivatives for treating a RNA virus infection” (ABIVAX, priority 2018, dated 2025).

pEC50: −log10 of the molar value.

This test has as its system RSV A2. As to the kind of experiment: RSV inhibition (cytopathic effect) in HEp-2 cells using Viral ToxGlo assay. Particulars: human respiratory syncytial virus; RSV A2, HEp-2 cells, MOI 0.5, 72 h p.i. It counts as cell-based. As for the experimental part: Protocol for Screening Antiviral Compounds for RSV Inhibition and Cytotoxicity Using Viral ToxGlo Assay
HEp-2 cells were maintained in Eagle's minimum essential medium (EMEM) with Earle's BSS adjusted to contain 2 mM L-glutamine, 10% fetal bovine serum, 100 U/ml penicillin and 100 μg/ml streptomycin. For the purposes of the screening assay they were grown to 90% confluency, trypsinized and recovered. The trypsin was neutralised with cell culture media and cells were centrifuged at 150×g for 5 minutes before discarding the supernatant and resuspending cell pellet in assay media (EMEM with Earle's BSS adjusted to contain 2 mM L-glutamine, 2% fetal bovine serum and 100 U/ml penicillin and 100 μg/ml streptomycin). The cells were seeded into white clear-bottomed cell culture plates at a density of 1.5×10^4 cells/well in 50 μl and 4×10^3 cells/well in 25 μl for 96 well plates and 384 well plates respectively. For the media/background control column assay media only was added. Cell plates were placed in a humid chamber and incubated overnight at 37° C./5% CO2. After overnight incubation cells were checked for confluency and healthy appearance.
Test articles were made up at 10× test concentration in a maximum DMSO concentration of 10% (final assay concentration maximal 1% DMSO) and added to the cell plates in volumes of 10 μl for 96 well plates and 5 μl for 384 well plates. For cell control and virus control wells the test article solvent only was added. Virus or assay media for cytotoxicity test wells and media/cell control wells was added immediately after test articles at an MOI of 0.5, 40 or 20 μl for 96 and 384 well plates respectively. Virus suspension was prepared by thawing RSV A2 frozen stocks and diluting to the required concentration of plaque forming units in assay media on ice.
Cell plates were further incubated inside a humid chamber for 72 h p.i at 37° C./5% CO2. After the incubation period cells were observed under the microscope to check for characteristic cytopathic effect in virus control wells and healthy cells in the cell control wells. After plates were adjusted to room temperature 20/40 μl Viral ToxGlo (Promega) was added to each well of the 384/96 well cell plates. Plates were incubated at room temperature, protected from light on a plate rocker for 20 minutes before measuring the luminescence on a spectrophotometer (Biotek Synergy HTX).
For orientation: Cytopathic effects are the visible damage that an infection or toxin causes in cultured cells.
For `CC1COCCN1C(=O)c1cccc(Nc2ccc(C(=O)/N=C3\NCCC(=O)N3)cc2C2CC2)c1Cl` (centres unmarked) [compound 91, 4-{[2-chloro-3-(3-methylmorpholine-4-carbonyl)phenyl]amino}-3-cyclopropyl-N-[(2E)-4-oxo-1,3-diazinan-2-ylidene]benzamide], the negative-log EC50 (pEC50) (usually the negative decadic logarithm of the EC50, by convention in mol/L) is 8.70.

Consider `CC1CN(C(=O)c2cccc(Nc3ccc(C(=O)/N=C4\NCCC(=O)N4)cc3C3CC3)c2Cl)CCO1` (centres unmarked) [compound 92, 4-{[2-chloro-3-(2-methylmorpholine-4-carbonyl)phenyl]amino}-3-cyclopropyl-N-[(2E)-4-oxo-1,3-diazinan-2-ylidene]benzamide], for which the negative-log EC50 (pEC50) is 8.70. Next, `O=C1CCN/C(=N\C(=O)c2ccc(Nc3cccc(OCC4COCCO4)c3Cl)c(C3CC3)c2)N1` (centres unmarked) [compound 93, 4-({2-chloro-3-[(1,4-dioxan-2-yl)methoxy]phenyl}amino)-3-cyclopropyl-N-[(2E)-4-oxo-1,3-diazinan-2-ylidene]benzamide]: 7.89; `CC(C)CCS(=O)(=O)Nc1cccc(Nc2ccc(C(=O)/N=C3\NCCC(=O)N3)cc2C(C)(C)C)c1` [compound 94, 3-tert-butyl-4-{[3-(3-methylbutanesulfonamido)phenyl]amino}-N-[(2E)-4-oxo-1,3-diazinan-2-ylidene]benzamide]: 7.77; `O=C1CCN/C(=N\C(=O)c2ccc(Nc3cccc(C(=O)N4CCOCC4)c3Cl)c(C3CC3)c2)N1` [compound 95, 4-{[2-chloro-3-(morpholine-4-carbonyl)phenyl]amino}-3-cyclopropyl-N-[(2E)-4-oxo-1,3-diazinan-2-ylidene]benzamide]: 7.72.

With `Cc1c(Nc2ccc(C(=O)N=C3NCCCN3)cc2C2CC2)cccc1C(=O)NCCC(C)C` [compound 96, 3-cyclopropyl-N-(1,3-diazinan-2-ylidene)-4-({2-methyl-3-[(3-methylbutyl)carbamoyl]phenyl}amino)benzamide], the pEC50 was 7.70. The same measure for `O=C1CCN/C(=N\C(=O)c2ccc(Nc3cccc(OCCCC4CCCCC4)c3)c(C3CC3)c2)N1` [compound 97, 4-{[3-(3-cyclohexylpropoxy)phenyl]amino}-3-cyclopropyl-N-[(2E)-4-oxo-1,3-diazinan-2-ylidene]benzamide]: 7.60; for `CC(C)NC(=O)c1cccc(Nc2ccc(C(=O)/N=C3\NCCC(=O)N3)cc2C(C)(C)C)c1` [compound 98, 3-tert-butyl-N-[(2E)-4-oxo-1,3-diazinan-2-ylidene]-4-({3-[(propan-2-yl)carbamoyl]phenyl}amino)benzamide]: 7.48; for `CC1(NC(=O)c2cccc(Nc3ccc(C(=O)N=C4NCCCN4)cc3C3CC3)c2)CC1` [compound 99, 3-cyclopropyl-N-(1,3-diazinan-2-ylidene)-4-({3-[(1-methylcyclopropyl)carbamoyl]phenyl}amino)benzamide]: 7.47. For `CC(C)NC(=O)c1ccccc1Nc1ccc(C(=O)/N=C2\NCCC(=O)N2)cc1C(C)(C)C` [compound 100, 3-tert-butyl-N-[(2E)-4-oxo-1,3-diazinan-2-ylidene]-4-({2-[(propan-2-yl)carbamoyl]phenyl}amino)benzamide], the pEC50 is 7.43. Next, `CCC(C)NC(=O)c1cccc(Nc2ccc(C(=O)N=C3NCCCN3)cc2C2CC2)c1` (centres unmarked) [compound 101, 4-({3-[(butan-2-yl)carbamoyl]phenyl}amino)-3-cyclopropyl-N-(1,3-diazinan-2-ylidene)benzamide]: 7.40; `CC(C)NC(=O)c1cccc(Nc2ccc(C(=O)N=C3NCCCN3)cc2C2CC2)c1` [compound 102, 3-cyclopropyl-N-(1,3-diazinan-2-ylidene)-4-({3-[(propan-2-yl)carbamoyl]phenyl}amino)benzamide]: 7.39; `O=C(N=C1NCCCN1)c1ccc(Nc2cccc(C(O)CCCC3CCCCC3)c2)c(C2CC2)c1` (centres unmarked) [compound 103, 4-{[3-(4-cyclohexyl-1-hydroxybutyl)phenyl]amino}-3-cyclopropyl-N-(1,3-diazinan-2-ylidene)benzamide]: 7.36.

For `CC(C)CCNC(=O)c1cccc(Nc2ccc(C(=O)N=C3NCCCN3)cc2C(F)(F)F)c1` [compound 104, N-(1,3-diazinan-2-ylidene)-4-({3-[(3-methylbutyl)carbamoyl]phenyl}amino)-3-(trifluoromethyl)benzamide], the pEC50 was 7.30. The same measure for `CC(C)CCCNC(=O)c1cccc(Nc2ccc(C(=O)N=C3NCCCN3)cc2C2CC2)c1` [compound 105, 3-cyclopropyl-N-(1,3-diazinan-2-ylidene)-4-({3-[(4-methylpentyl)carbamoyl]phenyl}amino)benzamide]: 7.21; for `O=C(N=C1NCCCN1)c1ccc(Nc2ccccc2S(=O)(=O)CCCC2CCCCC2)c(C2CC2)c1` [compound 106, 4-{[2-(3-cyclohexylpropanesulfonyl)phenyl]amino}-3-cyclopropyl-N-(1,3-diazinan-2-ylidene)benzamide]: 7.17; for `CC(C)CCCCNC(=O)c1cccc(Nc2ccc(C(=O)N=C3NCCCN3)cc2C2CC2)c1` [compound 107, 3-cyclopropyl-N-(1,3-diazinan-2-ylidene)-4-({3-[(5-methylhexyl)carbamoyl]phenyl}amino)benzamide]: 7.17.

With `CC(C)NC(=O)c1cccc(Nc2ccc(C(=O)/N=C3\NCCCN3C)cc2C2CC2)c1` [compound 108, 3-cyclopropyl-N-[(2E)-1-methyl-1,3-diazinan-2-ylidene]-4-({3-[(propan-2-yl)carbamoyl]phenyl}amino)benzamide], the negative logarithm of the EC50 (pEC50) is 7.11. The same measure for `CC(NC(=O)c1cccc(Nc2ccc(C(=O)N=C3NCCCN3)cc2C2CC2)c1)C(F)(F)F` (centres unmarked) [compound 109, 3-cyclopropyl-N-(1,3-diazinan-2-ylidene)-4-({3-[(1,1,1-trifluoropropan-2-yl)carbamoyl]phenyl}amino)benzamide]: 7.10; for `CCC(CC)NC(=O)c1cccc(Nc2ccc(C(=O)N=C3NCCCN3)cc2C2CC2)c1` [compound 110, 3-cyclopropyl-N-(1,3-diazinan-2-ylidene)-4-({3-[(pentan-3-yl)carbamoyl]phenyl}amino)benzamide]: 7.10; for `O=C(N=C1NCCCN1)c1ccc(Nc2cc(C(=O)NCCC3CCCCC3)ccn2)c(C(F)(F)F)c1` [compound 111, N-(2-cyclohexylethyl)-2-({4-[(1,3-diazinan-2-ylidene)carbamoyl]-2-(trifluoromethyl)phenyl}amino)pyridine-4-carboxamide]: 7.07. Next, `O=C(N=C1NCCCN1)c1ccc(Nc2cccc(OC(F)F)c2)c(C2CC2)c1` [compound 112, 3-cyclopropyl-N-(1,3-diazinan-2-ylidene)-4-{[3-(difluoromethoxy)phenyl]amino}benzamide]: 7.01; `CC(C)CCNC(=O)c1cccc(Nc2ccc(C(=O)N=C3NCCCN3)cc2C2CC2)c1` [compound 113, 3-cyclopropyl-N-(1,3-diazinan-2-ylidene)-4-({3-[(3-methylbutyl)carbamoyl]phenyl}amino)benzamide]: 6.99. Regarding `O=C(N=C1NCCCN1)c1ccc(Nc2cccc(C(=O)NC3CC3)c2)c(C2CC2)c1` [compound 114, 3-cyclopropyl-4-{[3-(cyclopropylcarbamoyl)phenyl]amino}-N-(1,3-diazinan-2-ylidene)benzamide], the pEC50 is 6.96. For the compound `O=C(N=C1NCCCN1)c1ccc(Nc2cccc(OCCCC3CCCCC3)c2)c(C2CC2)c1` [compound 115, 4-{[3-(3-cyclohexylpropoxy)phenyl]amino}-3-cyclopropyl-N-(1,3-diazinan-2-ylidene)benzamide], the pEC50 is 6.96. The same measure for `CC(C)C(=O)Nc1cccc(Nc2ccc(C(=O)/N=C3\NCCC(=O)N3)cc2C2CC2)c1` [compound 116, 3-cyclopropyl-4-{[3-(2-methylpropanamido)phenyl]amino}-N-[(2E)-4-oxo-1,3-diazinan-2-ylidene]benzamide]: 6.91. The same measure for `O=C(N=C1NCCCN1)c1ccc(Nc2cccc(C(=O)NC3CCCCC3)c2)c(C2CC2)c1` [compound 117, 4-{[3-(cyclohexylcarbamoyl)phenyl]amino}-3-cyclopropyl-N-(1,3-diazinan-2-ylidene)benzamide]: 6.90; for `CC(C)CCN(C)C(=O)c1cccc(Nc2ccc(C(=O)N=C3NCCCN3)cc2C2CC2)c1` [compound 118, 3-cyclopropyl-N-(1,3-diazinan-2-ylidene)-4-({3-[methyl(3-methylbutyl)carbamoyl]phenyl}amino)benzamide]: 6.90.

With `O=C(N=C1NCCCN1)c1ccc(Nc2cccc(-n3cc(CC4CCCCC4)nn3)c2)c(C2CC2)c1` [compound 119, 4-({3-[4-(cyclohexylmethyl)-1H-1,2,3-triazol-1-yl]phenyl}amino)-3-cyclopropyl-N-(1,3-diazinan-2-ylidene)benzamide], the negative logarithm of the EC50 (pEC50) is 6.89.
